Reference: US12077506B2, “Indane derivatives as hypoxia inducible factor-2(α) inhibitors” (priority 2019, dated 2024)
pEC50: −log10 of the molar value. Read-outs that look alike come from different tables or passages of the source.

Target: HIF-2α (Homo sapiens (Human), UniProt Q99814)
Assay: VEGF ELISA Assay
Assay type: cell-based
Procedure: The ability of the disclosed compounds to inhibit HIF-2α was measured by determining VEGF expression in 786-O cells. About 7500 786-O cells were seeded into each well of a 96-well, white, clear bottom plate (07-200-566, Fisher Scientific) with 200 ul growth medium. Four hours later, compounds were dispensed into wells by Tecan D300e digital dispenser with starting concentration of 10 uM and ½ log of dilution down to 1 nM as final concentration. Each concentration of treatment was performed in duplicate. About 20 hours later, medium was removed and fresh medium was added, followed by compounds treatment as described above. After 24 hours, cell culture medium was collected to determine VEGF concentration using an ELISA kit (R&D systems, cat #DVE00) following the manufacturer's instruction.
The EC50 was calculated by GraphPad Prism using the dose-response-inhibition (four parameter) equation. The plate with cells was then subjected to CellTiter-Glo luminescence cell viability assay (Promega) to determine the effect of these compounds on cell numbers after the above treatment.

[1] = VEGF expression in 786-O cells, ELISA of culture medium, read-out: EC50

Sequence of HIF-2α (Q99814 whole entry): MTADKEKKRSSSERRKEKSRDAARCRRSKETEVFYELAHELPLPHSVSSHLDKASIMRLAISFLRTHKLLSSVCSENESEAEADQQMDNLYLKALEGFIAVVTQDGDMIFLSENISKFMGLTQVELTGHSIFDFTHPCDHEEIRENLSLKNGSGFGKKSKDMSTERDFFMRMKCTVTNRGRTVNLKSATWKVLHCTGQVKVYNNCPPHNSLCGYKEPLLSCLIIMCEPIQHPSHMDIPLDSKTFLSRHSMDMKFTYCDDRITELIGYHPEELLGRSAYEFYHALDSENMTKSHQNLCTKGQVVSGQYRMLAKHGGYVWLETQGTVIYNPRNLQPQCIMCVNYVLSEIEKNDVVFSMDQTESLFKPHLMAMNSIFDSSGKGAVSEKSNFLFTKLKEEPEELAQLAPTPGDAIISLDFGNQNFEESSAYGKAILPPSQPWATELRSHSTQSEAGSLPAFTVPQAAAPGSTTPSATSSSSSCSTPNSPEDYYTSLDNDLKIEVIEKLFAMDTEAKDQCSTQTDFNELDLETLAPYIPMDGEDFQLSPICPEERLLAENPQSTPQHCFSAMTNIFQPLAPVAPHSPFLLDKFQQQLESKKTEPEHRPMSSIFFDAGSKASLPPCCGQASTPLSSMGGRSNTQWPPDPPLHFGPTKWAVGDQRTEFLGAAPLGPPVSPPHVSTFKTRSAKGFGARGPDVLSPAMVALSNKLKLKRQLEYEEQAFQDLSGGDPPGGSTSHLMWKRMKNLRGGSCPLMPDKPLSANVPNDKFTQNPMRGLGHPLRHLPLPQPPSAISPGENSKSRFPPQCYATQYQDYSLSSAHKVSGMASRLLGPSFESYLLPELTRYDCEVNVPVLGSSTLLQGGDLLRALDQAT

Row | pEC50 | Molecule | pEC50 [1]
1 | – | 7-(difluoromethyl)-6-(3,5-difluorophenoxy)-2,2,3,3-tetrafluoro-2,3-dihydro-1H-inden-1-ol [I-4] | 8.40
2 | – | N#Cc1cc(F)cc(Oc2ccc3c(c2C(F)F)C(O)C(F)(F)C3(F)F)c1 (stereo not shown) [I-1, 3-((4-(difluoromethyl)-1,1,2,2-tetrafluoro-3-hydroxy-2,3-dihydro-1H-inden-5-yl)oxy)-5-fluorobenzonitrile] | 8.22
3 | – | CC1(O)c2c(ccc(Oc3cc(F)cc(C#N)c3)c2C(F)F)C(F)(F)C1(F)F (stereo not shown) [I-2, 3-((4-(difluoromethyl)-1,1,2,2-tetrafluoro-3-hydroxy-3-methyl-2,3-dihydro-1H-inden-5-yl)oxy)-5-fluorobenzonitrile] | 6.11
4 | – | N#Cc1cc(F)cc(Oc2ccc3c(c2C(F)F)C(N)C(F)(F)C3(F)F)c1 (stereo not shown) [I-3, 3-((3-amino-4-(difluoromethyl)-1,1,2,2-tetrafluoro-2,3-dihydro-1H-inden-5-yl)oxy)-5-fluorobenzonitrile] | 6.78
5 | – | Cc1cc(C#N)cc(Oc2ccc3c(c2C(F)F)C(O)C(F)(F)C3(F)F)c1 (stereo not shown) [I-5, 3-((4-(difluoromethyl)-1,1,2,2-tetrafluoro-3-hydroxy-2,3-dihydro-1H-inden-5-yl)oxy)-5-methylbenzonitrile] | 7.17
6 | – | N#Cc1cc(Cl)cc(Oc2ccc3c(c2C(F)F)C(O)C(F)(F)C3(F)F)c1 (stereo not shown) [I-6, 3-chloro-5-((4-(difluoromethyl)-1,1,2,2-tetrafluoro-3-hydroxy-2,3-dihydro-1H-inden-5-yl)oxy)benzonitrile] | 7.57
7 | – | OC1c2c(ccc(Oc3cc(F)cc(Cl)c3)c2C(F)F)C(F)(F)C1(F)F (stereo not shown) [I-7, 6-(3-chloro-5-fluorophenoxy)-7-(difluoromethyl)-2,2,3,3-tetrafluoro-2,3-dihydro-1H-inden-1-ol] | 8.10
8 | – | OC1c2c(ccc(OC3CC(F)(F)C3)c2C(F)F)C(F)(F)C1(F)F (stereo not shown) [I-8, 6-(3,3-difluorocyclobutoxy)-7-(difluoromethyl)-2,2,3,3-tetrafluoro-2,3-dihydro-1H-inden-1-ol] | 6.98
9 | – | N#Cc1cncc(Oc2ccc3c(c2C(F)F)C(O)C(F)(F)C3(F)F)c1 (stereo not shown) [I-9, 5-((4-(difluoromethyl)-1,1,2,2-tetrafluoro-3-hydroxy-2,3-dihydro-1H-inden-5-yl)oxy)nicotinonitrile] | 6.83
10 | – | OC1c2c(ccc(Oc3cncc(F)c3)c2C(F)F)C(F)(F)C1(F)F (stereo not shown) [I-10, 7-(difluoromethyl)-2,2,3,3-tetrafluoro-6-((5-fluoropyridin-3-yl)oxy)-2,3-dihydro-1H-inden-1-ol] | 7.27
11 | 6.33 | [2H][C@]1(O)c2c(ccc(Oc3cc(F)cc(C#N)c3)c2C#N)C(F)(F)C1(F)F [I-13a, (S)-5-(3-cyano-5-fluorophenoxy)-1,1,2,2-tetrafluoro-3-hydroxy-2,3-dihydro-1H-indene-4-carbonitrile-3-d] | –
12 | 7.92 | [2H][C@@]1(O)c2c(ccc(Oc3cc(F)cc(C#N)c3)c2C#N)C(F)(F)C1(F)F [I-13b, (R)-5-(3-cyano-5-fluorophenoxy)-1,1,2,2-tetrafluoro-3-hydroxy-2,3-dihydro-1H-indene-4-carbonitrile-3-d] | –
13 | 6.74 | [2H]C1(O)c2c(ccc(Oc3cncc(F)c3)c2C#N)C(F)(F)C1(F)F (stereo not shown) [I-14, 1,1,2,2-tetrafluoro-5-((5-fluoropyridin-3-yl)oxy)-3-hydroxy-2,3-dihydro-1H-indene-4-carbonitrile-3-d] | –
14 | – | CC1(O)c2c(ccc(Oc3cc(F)cc(C#N)c3)c2C#N)C(F)(F)C1(F)F (stereo not shown) [I-15, 5-(3-cyano-5-fluorophenoxy)-1,1,2,2-tetrafluoro-3-hydroxy-3-methyl-2,3-dihydro-1H-indene-4-carbonitrile] | 6.54
15 | – | CC1(O)c2c(ccc(Oc3cc(F)cc(C#N)c3)c2Br)C(F)(F)C1(F)F (stereo not shown) [I-16, 3-((4-bromo-1,1,2,2-tetrafluoro-3-hydroxy-3-methyl-2,3-dihydro-1H-inden-5-yl)oxy)-5-fluorobenzonitrile] | 5.68
16 | – | C=Cc1c(Oc2cc(F)cc(C#N)c2)ccc2c1C(C)(O)C(F)(F)C2(F)F (stereo not shown) [I-17, 3-fluoro-5-((1,1,2,2-tetrafluoro-3-hydroxy-3-methyl-4-vinyl-2,3-dihydro-1H-inden-5-yl)oxy)benzonitrile] | 5.24
17 | – | CCc1c(Oc2cc(F)cc(C#N)c2)ccc2c1C(C)(O)C(F)(F)C2(F)F (stereo not shown) [I-18, 3-((4-ethyl-1,1,2,2-tetrafluoro-3-hydroxy-3-methyl-2,3-dihydro-1H-inden-5-yl)oxy)-5-fluorobenzonitrile] | 5.60
18 | – | N#Cc1cc(F)cc(Oc2ccc3c(c2C(F)F)C(O)C(F)(F)C3F)c1 (stereo not shown) [I-19, 3-((4-(difluoromethyl)-1,2,2-trifluoro-3-hydroxy-2,3-dihydro-1H-inden-5-yl)oxy)-5-fluorobenzonitrile] | 6.82
19 | – | N#Cc1cc(F)cc(Oc2ccc3c(c2C(F)F)C(O)C(F)(Cl)C3(F)F)c1 (stereo not shown) [I-20, 3-((2-chloro-4-(difluoromethyl)-1,1,2-trifluoro-3-hydroxy-2,3-dihydro-1H-inden-5-yl)oxy)-5-fluorobenzonitrile] | 7.70
